Measurements published in paper PMC3510433, “Adamantyl carboxamides and acetamides as potent human 11β-hydroxysteroid dehydrogenase type 1 inhibitors” (Bioorganic & Medicinal Chemistry, 2012).
Entries after “also recorded” stand apart in the source; their conditions may differ. Marks after values point to notes of the source that are not given here.

What was measured:
[1] = molecular target: human cytochrome P450 2D6 (Homo sapiens, UniProt P10635); assay: Inhibition of human cytochrome P450 2D6; format: in vitro ADME; conditions: for Percentage inhibition of 2D6: 10 μM; for IC50: mean value of two measurements
Sequence of human cytochrome P450 2D6 (P10635 whole entry): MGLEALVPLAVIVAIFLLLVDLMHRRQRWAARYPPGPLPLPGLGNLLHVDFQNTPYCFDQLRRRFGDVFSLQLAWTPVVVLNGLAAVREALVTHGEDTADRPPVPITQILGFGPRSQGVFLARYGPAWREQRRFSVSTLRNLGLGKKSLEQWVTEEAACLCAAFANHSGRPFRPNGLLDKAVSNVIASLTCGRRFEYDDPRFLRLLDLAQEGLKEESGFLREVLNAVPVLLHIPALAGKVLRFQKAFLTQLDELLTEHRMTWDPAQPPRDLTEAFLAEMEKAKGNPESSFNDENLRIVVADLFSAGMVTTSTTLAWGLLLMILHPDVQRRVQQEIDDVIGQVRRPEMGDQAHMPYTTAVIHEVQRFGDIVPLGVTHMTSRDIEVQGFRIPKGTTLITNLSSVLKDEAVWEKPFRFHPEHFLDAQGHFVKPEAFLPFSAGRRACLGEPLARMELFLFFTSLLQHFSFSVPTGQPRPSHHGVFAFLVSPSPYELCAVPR
Source text: (§1) To identify potential problems with these compounds interfering with the metabolism of other drugs, compounds 3, 4, 15 and 41 were studied for their inhibition of the key human cytochrome P450 enzymes: 1A2, 2C9, 2C19, 2D6, 3A4-BFC (7-benzyloxy-4-(trifluoromethyl)coumarin) and 3A4-BQ (7-benzyloxyquinoline) (Table 6).

Caco-2 cell model = assay: Membrane permeability, Caco-2 cell model; format: in vitro ADME; conditions: Caco-2, 20 μM
Source text: (§2) Compound 3 was studied for its membrane permeability using the Caco-2 cell model.

[2] = Membrane permeability, Caco-2 cell model; format: in vitro ADME; conditions: human, Caco-2; apical to basolateral, 20 μM
Source text: as §2

[3] = molecular target: human cytochrome P450 3A4-BQ (Homo sapiens, UniProt P08684); assay: Inhibition of human cytochrome P450 3A4-BQ (7-benzyloxyquinoline); format: in vitro ADME; conditions: for Percentage inhibition of 3A4-BQ: 10 μM; for IC50: mean value of two measurements
Sequence of human cytochrome P450 3A4-BQ (P08684 whole entry): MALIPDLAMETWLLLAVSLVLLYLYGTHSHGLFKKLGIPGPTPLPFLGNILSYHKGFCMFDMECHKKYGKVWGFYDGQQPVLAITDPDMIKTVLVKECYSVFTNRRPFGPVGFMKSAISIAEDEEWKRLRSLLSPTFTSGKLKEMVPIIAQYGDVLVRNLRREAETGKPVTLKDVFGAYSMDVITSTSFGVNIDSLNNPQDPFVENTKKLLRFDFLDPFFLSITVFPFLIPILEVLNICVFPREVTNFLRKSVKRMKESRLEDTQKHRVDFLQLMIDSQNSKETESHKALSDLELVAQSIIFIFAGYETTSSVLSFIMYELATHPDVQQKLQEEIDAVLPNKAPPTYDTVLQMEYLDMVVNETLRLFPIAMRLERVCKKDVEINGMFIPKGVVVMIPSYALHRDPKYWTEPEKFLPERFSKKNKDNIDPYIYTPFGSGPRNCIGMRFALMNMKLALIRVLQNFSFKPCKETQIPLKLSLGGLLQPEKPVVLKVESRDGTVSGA
Source text: as §1

human 11β-HSD1 = molecular target: T1, human 11β-HSD1 (Homo sapiens, UniProt P28845); assay: 11β-HSD1 inhibition, human HEK-293 cell based assay (SPA); conditions: for IC50: HEK-293 cells stably transfected with HSD11B1, mean of 3 measurements
T1 construct: expressed in transfected cells; host or cells: HEK-293 (human), stably transfected
T1 sequence (P28845 whole entry): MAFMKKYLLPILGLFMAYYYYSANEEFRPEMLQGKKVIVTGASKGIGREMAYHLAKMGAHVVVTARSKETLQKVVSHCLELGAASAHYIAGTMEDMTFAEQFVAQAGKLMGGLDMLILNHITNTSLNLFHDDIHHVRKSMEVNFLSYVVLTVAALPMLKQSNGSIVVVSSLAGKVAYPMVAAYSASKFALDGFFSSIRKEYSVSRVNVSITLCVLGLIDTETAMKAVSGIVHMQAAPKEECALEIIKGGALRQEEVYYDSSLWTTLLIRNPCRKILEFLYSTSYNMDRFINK
Experimental: 11β-HSD1 inhibition was measured in intact human HEK-293 cells to reveal the true inhibitory activity. Differences in observed effects for different compounds may reflect combinatorial factors including the ability to penetrate the cell membrane, the stability within the cell and the binding ability to the enzyme.
The cell-based assays were conducted on the human HEK-293 cell line stably transfected with the HSD11B1 gene.[28] 11β-HSD1 activity was determined by measuring the amount of tritiated product formed using a scintillation proximity assay (SPA).
Cells were incubated in 96-well micro-plates in the presence of tritiated cortisone substrate and the assay plates contained internal high and low controls to allow calculation of percentage inhibition. Each well of a 96-well culture plate was seeded with human 11β-HSD1 overexpressed HEK293 cells in 100 μL medium. When the cells were 80% confluent, the medium was removed from each well then 100 μL of fresh, serum-free, medium containing ^3H-cortisone (22 nM) and test compound in 1% DMSO was added. The control wells were also dispensed. […] The plate was incubated at 37 °C for 2 h, after which 50 μL of medium was removed from each well and transferred to a microplate containing 100 μL of a pre-incubated mixture of anti-cortisol antibody and SPA bead. The mixture was incubated with gentle shaking until equilibrium was reached, before transferring to a scintillation counter to establish the enzyme activity in each sample.
The compounds were initially tested at a concentration of 1 μM. Those compounds showing over 70% inhibition of 11β-HSD1 at 1 μM were subjected to an IC50 measurement. A Merck compound 544 was used as the reference compound in the assay (IC50 = 50 ± 20 nM).[19] The IC50 values are reported as the mean value of 3 measurements with variance less than 20%. IC50 values were calculated from the dose-response curve using Microsoft Excel add-in XLfit with a Four Parameter Logistic nonlinear regression model.

[4] = molecular target: T2, human cytochrome P450 1A2 (Homo sapiens, UniProt P05177); assay: Inhibition of human cytochrome P450 1A2; format: in vitro ADME; conditions: for Percentage inhibition of 1A2: 10 μM; for IC50: mean value of two measurements
T2 sequence (P05177 1-516): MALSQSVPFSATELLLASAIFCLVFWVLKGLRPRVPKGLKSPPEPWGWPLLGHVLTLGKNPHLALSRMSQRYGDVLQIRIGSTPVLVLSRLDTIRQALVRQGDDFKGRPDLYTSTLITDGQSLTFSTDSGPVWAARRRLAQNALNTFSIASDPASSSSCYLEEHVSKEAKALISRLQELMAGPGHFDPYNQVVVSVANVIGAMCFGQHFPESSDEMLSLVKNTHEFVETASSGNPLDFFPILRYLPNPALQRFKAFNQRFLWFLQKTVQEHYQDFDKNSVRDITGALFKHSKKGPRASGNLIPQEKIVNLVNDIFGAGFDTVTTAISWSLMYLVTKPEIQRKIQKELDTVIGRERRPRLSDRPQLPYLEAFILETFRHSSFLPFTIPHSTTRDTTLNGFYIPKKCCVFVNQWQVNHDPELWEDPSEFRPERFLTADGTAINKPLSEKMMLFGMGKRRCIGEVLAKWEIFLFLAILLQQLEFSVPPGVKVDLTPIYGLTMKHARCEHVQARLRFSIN
Source text: as §1

[5] = system: key human cytochrome P450 enzymes; assay: Inhibition of the key human cytochrome P450 enzymes (panel, summary statements); format: in vitro ADME
Source text: as §1

[6] = molecular target: human cytochrome P450 2C9 (Homo sapiens, UniProt P11712); assay: Inhibition of human cytochrome P450 2C9; format: in vitro ADME; conditions: for Percentage inhibition of 2C9: 10 μM; for IC50: mean value of two measurements
Sequence of human cytochrome P450 2C9 (P11712 whole entry): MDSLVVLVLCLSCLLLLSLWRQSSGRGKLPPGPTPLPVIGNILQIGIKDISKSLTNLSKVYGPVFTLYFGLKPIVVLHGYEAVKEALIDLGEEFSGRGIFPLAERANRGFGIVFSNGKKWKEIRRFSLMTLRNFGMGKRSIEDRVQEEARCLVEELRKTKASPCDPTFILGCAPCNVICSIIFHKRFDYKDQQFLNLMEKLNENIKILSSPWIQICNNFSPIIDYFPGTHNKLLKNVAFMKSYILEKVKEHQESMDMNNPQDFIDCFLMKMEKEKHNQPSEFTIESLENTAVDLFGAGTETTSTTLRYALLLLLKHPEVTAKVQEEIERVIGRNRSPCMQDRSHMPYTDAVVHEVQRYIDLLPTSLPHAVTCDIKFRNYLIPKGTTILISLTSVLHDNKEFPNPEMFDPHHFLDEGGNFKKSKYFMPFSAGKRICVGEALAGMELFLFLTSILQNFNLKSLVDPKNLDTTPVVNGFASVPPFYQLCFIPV
Source text: as §1

[7] = molecular target: human cytochrome P450 2C19 (Homo sapiens, UniProt P33261); assay: Inhibition of human cytochrome P450 2C19; format: in vitro ADME; conditions: for Percentage inhibition of 2C19: 10 μM; for IC50: mean value of two measurements
Sequence of human cytochrome P450 2C19 (P33261 whole entry): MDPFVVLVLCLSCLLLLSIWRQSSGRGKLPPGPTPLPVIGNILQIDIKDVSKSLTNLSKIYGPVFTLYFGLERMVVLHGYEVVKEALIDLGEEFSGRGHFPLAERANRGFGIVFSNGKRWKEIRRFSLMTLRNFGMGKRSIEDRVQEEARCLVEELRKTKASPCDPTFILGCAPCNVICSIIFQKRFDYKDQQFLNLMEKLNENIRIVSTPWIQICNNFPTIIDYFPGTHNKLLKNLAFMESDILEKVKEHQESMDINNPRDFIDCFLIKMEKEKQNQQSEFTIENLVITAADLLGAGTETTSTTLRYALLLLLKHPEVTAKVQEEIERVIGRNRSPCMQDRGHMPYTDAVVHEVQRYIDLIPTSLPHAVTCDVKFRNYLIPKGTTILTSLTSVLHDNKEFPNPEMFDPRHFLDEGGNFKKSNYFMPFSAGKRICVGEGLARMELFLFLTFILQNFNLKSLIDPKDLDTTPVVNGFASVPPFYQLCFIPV
Source text: as §1

[8] = molecular target: human cytochrome P450 3A4-BFC (Homo sapiens, UniProt P08684); assay: Inhibition of human cytochrome P450 3A4-BFC (7-benzyloxy-4-(trifluoromethyl)coumarin); format: in vitro ADME; conditions: mean value of two measurements
Sequence of human cytochrome P450 3A4-BFC (P08684 whole entry): as the sequence (P08684 whole entry) above
Source text: as §1

[9] = Stability in incubation with human liver microsomes; format: in vitro ADME; conditions: 37 °C, NADPH; for half-life: 40 min
Experimental: Potent inhibitors (3 and 15) were incubated at 37 °C for 40 min with human liver microsomes in the presence of the cofactor NADPH to evaluate their stability under such conditions. The remaining parent compound was measured using a HPLC method.

[10] = system: CYP 2CA (so in the source), CYP3A4; assay: Inhibition of the key human cytochrome P450 enzymes (panel, summary statements); format: in vitro ADME; conditions: human; 2CA, 3A4-BFC and 3A4-BQ
Source text: as §1

Row | Percentage inhibition of 2D6 [1] | permeability (in words) (Caco-2 cell model) | Papp A→B at 20 μM [2] | Percentage inhibition of 3A4-BQ [3] | IC50 (human 11β-HSD1) | Percentage inhibition of 1A2 [4] | activity against 2C9 and 3A4-BFC (in words) ([5]; 2C9 and 3A4-BFC) | Percentage inhibition of 2C9 [6] | Percentage inhibition of 2C19 [7] | IC50 [8] | half-life [9] | IC50 [1] | IC50 [3] | fold more potent than compound 16 (human 11β-HSD1; N-methyl amide vs NH analogue 16) | IC50 [4] | IC50 [6] | IC50 [7] | IC50 [10] | Compound | stability with human liver microsomes (in words) [9] | inhibition of the key human cytochrome P450 enzymes (in words) ([5]; 1A2, 2C9, 2C19, 2D6, 3A4-BFC, 3A4-BQ)
1 | 2% ^a | high permeability | 33 ×10⁻⁶ cm/s | 34% ^a | 0.229 µM | 6% ^a | weak activity | 62% ^a | 13% ^a | 10 µM | 1 to 1.17 h | – | – | – | – | – | – | – | CN(Cc1cccs1)C(=O)C12CC3CC(CC(C3)C1)C2 [Compound 3] | moderately stable | –
2 | 9% ^a | – | – | 66% ^a | 0.308 µM | 1% ^a | – | 49% ^a | 80% ^a | 0.15 µM | – | – | – | – | – | – | – | – | CN(Cc1cccs1)C(=O)CC12CC3CC(CC(C3)C1)C2 [Compound 4, 2-(Adamantan-1-yl)-N-methyl-N-(thiophen-2-ylmethyl)acetamide] | – | –
3 | – | – | – | – | 0.114 µM | – | – | – | – | 19 µM | 1 to 1.17 h | > 100 µM | 18 µM | over 15 times | > 100 µM | > 100 µM | > 100 µM | – | CN(Cc1cccn1C)C(=O)C12CC3CC(CC(C3)C1)C2 [Compound 15, N-Methyl-N-((1-methyl-1H-pyrrol-2-yl)-methyl)adamantane-1-carboxamide] | moderate stability; also recorded: moderately stable; also recorded: relatively stable | weak inhibitory activity; also recorded: very weak inhibition; also recorded: very weak inhibitory activity
4 | – | – | – | – | 0.28 µM | – | – | – | – | 7.3 µM | – | 72 µM | 1.6 µM | – | > 100 µM | 4.5 µM | > 100 µM | 1.6 to 7.3 µM | Cc1ccc(C2(C(=O)N(C)Cc3cccs3)CC2)cc1 [Compound 41, N-Methyl-N-(thiophen-2-ylmethyl)-1-p-tolylcyclopropanecarboxamide] | – | –
